Among the data in the METLIN SMRT retention time set (Domingo-Almenara et al. 2019) are RP-LC retention time values, retold here.

The data set in a line: gradient 5% acetonitrile 3 min, to 50% in 2 min, to 85% in 15 min, held 3 min, 100 µL/min. To be noted: column: Zorbax Extend-C18 2.1 x 50 mm; eluents: water / acetonitrile, 0.1% formic acid. In short, it runs like this:
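In both positive and negative ionization mode, a quadrupole time-of-flight mass spectrometer coupled to HPLC analyzed pure standards run in mixtures of ~100 molecules. The Zorbax Extend-C18 column (2.1 × 50 mm, 1.8 μm) was operated at 100 μL/min with water and acetonitrile, each containing 0.1% formic acid. The dead volume was 40 μL and the dwell volume 900 μL. Retention time came from adduct peaks that were computationally picked and individually inspected by hand.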
`CN1CCN(CCCNC(=O)CCc2cn(-c3ccccc3)nc2-c2ccc3c(c2)OCO3)CC1` came in with an RP-LC retention time of 614 s.

`CC(C)Cn1c(=O)c2cc(C(=O)NCCCn3cccn3)nn2c2ccccc21` returned an RP-LC retention time of 831 s.

Consider `Cc1nnc2ccc(N3CCN(C(=O)COc4ccc5c(c4)OCO5)CC3)nn12`, for which the RP-LC retention time worked out at 617 s.

Compound `O=C(Nc1ccc2c(c1)OCO2)C1CCCN(c2nnc3ccc(Cl)cn23)C1` (stereo not drawn) displayed an RP-LC retention time of 747 s.

The compound `CCn1cnc(S(=O)(=O)N2CCC(C(=O)NC3CCCCCCC3)CC2)c1` gave an RP-LC retention time of 769 s.

Compound `CC12CCC(C1)C(C)(C)C2OC(=O)c1ccccc1C(=O)O` (stereo not drawn) gave an RP-LC retention time of 1130 s.

In turn, `Cc1c(Cl)cccc1-c1ccc(CNCC2CCCO2)o1` (stereo not drawn) registered an RP-LC retention time of 734 s.

The compound `O=C(Nc1cccc2nsnc12)C1CCN(c2ccc(-c3ccc(F)cc3)nn2)CC1` displayed an RP-LC retention time of 681 s.

For the compound `CC(=O)N1CCc2sc(S(=O)(=O)N3CCN(c4ccccc4F)CC3)cc2C1`, the RP-LC retention time worked out at 905 s.

For the compound `Cc1noc(C)c1Cc1ccc(C(=O)N2CCCCCCN(C)C(=O)[C@@H]3CCC[C@@H]32)o1`, the RP-LC retention time amounted to 814 s.

On to `CCN1C(=O)C2(CCN(S(=O)(=O)Cc3ccc(Cl)cc3)CC2)c2ccccc21`, for which the RP-LC retention time came to 1050 s.

The compound `CCOC(=O)c1noc2nc(C)nc(NCC3CCN(Cc4ccccc4F)CC3)c12` yielded an RP-LC retention time of 595 s.

In turn, `CCc1ccc(NC(=O)Cn2c(=O)nc(N3CCCC(C)C3)c3ccccc32)cc1` (stereo not drawn) had an RP-LC retention time of 905 s.

Take `Cc1cc(C)n(-c2ccnc(NCc3cccnc3)n2)n1`: the RP-LC retention time was 588 s.

Compound `CCC(CC)NC(=O)C1CCCCc2nnc(C(C)C)n21` (stereo not drawn) showed an RP-LC retention time of 664 s.

`CCCN1CCN(c2cc(C(=O)O)c3cc(NS(=O)(=O)c4cccc(C)c4)ccc3n2)CC1` came in with an RP-LC retention time of 607 s.

For the compound `CNc1nc(Nc2cc(F)ccc2F)nc2ccccc12`, the RP-LC retention time was found to be 675 s.

`CN(C)S(=O)(=O)c1ccc2c(c1)N(CC(=O)NCCc1ccco1)C(=O)C1CCCCN21` (stereo not drawn) displayed an RP-LC retention time of 842 s.

Compound `CCOC(=O)O[C@]1(C(=O)OCCl)CCC2[C@@H]3CCC4=CC(=O)C=C[C@]4(C)C3[C@@H](O)C[C@@]21C` (stereo partly drawn) came in with an RP-LC retention time of 1110 s.

In turn, `COc1ccc(-c2nnc(-c3cc(S(=O)(=O)N4CCC(C(=O)O)CC4)ccc3Cl)o2)cc1` came in with an RP-LC retention time of 875 s.

Consider `COc1ccc(-c2nc(-c3ccc4oc(C)nc4c3)no2)cn1`, for which the RP-LC retention time turned out to be 1060 s.

For the compound `COc1cc(C(=O)N2CCC3(CC2)Nc2cc(F)ccc2-n2cccc23)cc(OC)c1OC`, the RP-LC retention time was 868 s.

Consider `Cc1nc(NC2=NCN(Cc3cccnc3)CN2)nc2c(C)cccc12`, for which the RP-LC retention time was determined as 592 s.

`Cc1cc(F)ccc1NC(=O)c1cc(C(C)C)n2nccc2n1`: the RP-LC retention time turned out to be 1140 s.

With `O=C(NCc1ccc(F)cc1Cl)C1CCN(C(=O)c2cc3ccsc3[nH]2)CC1`, the RP-LC retention time came out at 822 s.

`Cc1sc2ccn(C)c(=O)c2c1C(=O)N1CCC2(CC1)OCCO2`: the RP-LC retention time came to 626 s.

The compound `O=C(Cc1ccc(F)cc1)Nc1ccccc1NC(=O)c1cccc(Cl)c1` returned an RP-LC retention time of 897 s.

As for `O=C(c1cc(S(=O)(=O)N2CCCCCC2)ccc1Cl)N1CCN(c2ncccn2)CC1`, the RP-LC retention time is 926 s.

`CN(Cc1ccccc1)c1ncc(C(=O)Nc2ccccc2)c(N)n1` showed an RP-LC retention time of 731 s.

`O=C(Nc1nccnc1C(=O)NCc1ccncc1)c1ccccc1` displayed an RP-LC retention time of 590 s.

Regarding `CNC(=O)CCc1nc2ccccc2n(CC(=O)N2CCOc3ccc(C)cc32)c1=O`, the RP-LC retention time was found to be 728 s.

`COc1cccc(-n2c(=O)c(C(=O)NCCc3ccccc3)c(O)c3cccnc32)c1` showed an RP-LC retention time of 1200 s.

`CCCS(=O)(=O)N1CCC(c2nnc(C3CC3)s2)CC1` returned an RP-LC retention time of 684 s.

`Cc1ccc(CNC(=O)c2cccn2Cc2noc(C)n2)cc1` showed an RP-LC retention time of 828 s.

For `Cc1cccc(CNC(=O)C2CCCN(c3cc(=O)n(C)c(=O)n3C)C2)c1` (stereo not drawn), the RP-LC retention time came out at 701 s.

In the case of `Cc1ccc(OCc2nc(-c3cccc(-c4ccn[nH]4)c3)no2)cc1`, the RP-LC retention time was determined as 778 s.

In the case of `COc1ccc(S(=O)(=O)N2CCc3nc[nH]c3C2)cc1`, the RP-LC retention time was found to be 586 s.

Regarding `COc1ccccc1NC(=O)Cn1nc2c(Oc3ccccc3Cl)nccn2c1=O`, the RP-LC retention time worked out at 908 s.

`Cc1ccc(NC(=O)c2cn(-c3cc(N(C)C)ncn3)cn2)cc1` had an RP-LC retention time of 832 s.

`COC(=O)c1cccc(NC(=O)Cn2nc3c(N4CCC(C)CC4)nccn3c2=O)c1` had an RP-LC retention time of 786 s.

Compound `CC(C)Oc1cc2oc(=O)cc(-c3ccccc3)c2cc1CCC(=O)N1CCN(c2ccccn2)CC1` gave an RP-LC retention time of 647 s.

Compound `COc1ccc(CCC(=O)Nc2nc(-c3cccc(Br)c3)cs2)cc1` had an RP-LC retention time of 1150 s.

`CCC(C)(C)C(=O)N1CCCC1Cc1noc(-c2cccnc2)n1` (stereo not drawn) gave an RP-LC retention time of 839 s.

In turn, `CC(=O)Nc1cccc(C(=O)NCCc2c[nH]c3ccc(Cl)cc23)c1` had an RP-LC retention time of 736 s.

For `Cc1ccc(C(=O)N2CCCC2c2nc(-c3cccc(Cl)c3)no2)c(C)c1` (stereo not drawn), the RP-LC retention time amounted to 1200 s.

Compound `COc1ccccc1N1CCN(C(=O)c2sc3ncccc3c2-n2cccc2)CC1` displayed an RP-LC retention time of 963 s.

In turn, `O=C(c1ccc(=O)n(CCN2CCOCC2)c1)N1CCC(Cc2ccccc2)CC1` came in with an RP-LC retention time of 637 s.

With `COc1cc([C@H]2c3cc4c(cc3[C@@H](O)[C@H](CO)[C@H]2C(=O)Nc2cnccn2)OCO4)cc(OC)c1OC`, the RP-LC retention time was 626 s.

`O=C(Nc1ccc(F)cc1F)C1CCCN(C(=O)Cc2cccc3ccccc23)C1` (stereo not drawn) registered an RP-LC retention time of 958 s.

For `O=C(NCCc1csc(C2CCCN(C(=O)C3CC3)C2)n1)C1CCC1` (stereo not drawn), the RP-LC retention time came to 682 s.

Consider `COc1ccc(C2C(=O)N(C3CCCCC3)CC(=O)N2Cc2cccs2)cc1OC` (stereo not drawn), for which the RP-LC retention time was determined as 882 s.

In the case of `Cc1cc(-c2nnc(-c3ccco3)o2)c(C)n1CC(=O)Nc1ccc(F)c(Cl)c1`, the RP-LC retention time is 941 s.

The compound `Cc1[nH]c(C(=O)N2CCC(CC(=O)NCC3CCCO3)CC2)c(C)c1C(=O)OC(C)C` (stereo not drawn) gave an RP-LC retention time of 682 s.

Consider `COc1ccc(N2CCN(c3nccc4ccc(C(=O)NC5CCCC5)cc34)CC2)cc1`, for which the RP-LC retention time is 734 s.

On to `COc1ccc(C)cc1NC(=O)N1CCC(c2nc3ccncc3n2CC(C)C)C1` (stereo not drawn), for which the RP-LC retention time was 586 s.

`CCN1C(=O)c2cccnc2Sc2cc(CNC(=O)COc3ccccc3)ccc21` displayed an RP-LC retention time of 798 s.

`COc1ccc(CN2C=C(C(=O)OCc3nc(-c4cccs4)no3)C(C)=NS2(=O)=O)cc1` showed an RP-LC retention time of 1090 s.

Compound `CNC(=O)c1cccc2c1CCN2C(=O)Nc1ccc(C)cc1` registered an RP-LC retention time of 747 s.
